Measured values from US10233201B2, “Class of HDAC inhibitors expands the renal progenitor cells population and improves the rate of recovery from acute kidney injury” (University of Pittsburgh—Of the Commonwealth System of …, priority 2012, dated 2019).
Values joined by “and” are separate entries in the source; they are usually repeats but may differ in a detail not shown here. Equal entries are not always repeated. “Also recorded” adds a separate entry of the source.

Tests used:
[1] = cited from earlier work
[2] = tested on: myod1 (somites), fli1a (vasculature), ntla (notochord); test: In situ hybridization for mesodermal markers myod1, fli1a, ntla in 10-somite embryos; format: in vivo, zebrafish
Protocol: (§1) PTBA was synthesized as described below. Hydroxyurea and aphidicolin were obtained from Sigma-Aldrich.
(§2) In situ hybridization and immunocytochemistry: In situ hybridization was performed as previously described with some modifications. 142 Hybridization temperature was 65° C. Embryos were blocked in 2% blocking reagent (Roche) with 5% sheep serum in MAB (100 mM maleic acid and 150 mM NaCl [pH 7.5]). Whole-mount immunocytochemistry with 1:25 mouse anti-α6F antibody (Developmental Studies Hybridoma Bank) and 1:100 Cy3 secondary antibody (Jackson ImmunoResearch) was performed as described previously. 108 Embryos were embedded in JB-4 for sectioning per the manufacturer's instructions (Polysciences), sectioned at 5 μm, and mounted with Cytoseal 60 (Richard-Allan Scientific).

zebrafish larvae = test: Phenotypic scoring of edema and survival in zebrafish larvae at 72 hpf; format: in vivo
Source text: as §1
Wild type: no visible edema or developmental delay.

[3] = tested on: renal progenitor cells (lhx1a expression); test: In situ hybridization for lhx1a expression in 10-somite embryos (renal progenitor cell expansion); format: in vivo
Protocol: as §1, §2
The remaining PTBA analogs were synthesized.
In situ hybridization for lhx1a was performed as described above. […] Compounds were classified as effective, partially-effective or ineffective based on comparison to the effects of PTBA at a given concentration.
Testing of the compounds is on-going, but for those tested, Table 3 provides first pass EC50s based upon colormetric in situ hybridizations for the Lhx1a mRNA expression levels. After the procedure is run, in situ hybridization is done for the lhx1 mRNA expression and the number of embryos that show an expanded kidney field is manually counted to establish the percent of embryos showing expansion. Then the EC50 is determined by plotting the percent expansion in Excel, graphing the results and using the trendline function to determine the 50 percent point. […] For UPHD-00186, the 4 values for EC50 are shown in Table 3 for the corresponding expression in zebrafish embryos employed an artificial intelligence-based image analysis method termed cognition network technology (CNT) for n=4.

[4] = tested on: human HDACs (HeLa cell nuclear extract); test: Fluorescence histone deacetylation assay with HeLa cell nuclear extract; format: biochemical; conditions: 1 μM TSA, all input levels of nuclear extract
Protocol: To evaluate this in vitro, the deacetylation of a fluorescent peptide substrate was measured in the presence of human HDACs.
In vitro HDAC activity assays were performed using a fluorescence HDAC assay kit (Active Motif) according to the manufacturer's instructions. For maintaining compound solubility at 5 mM, the final DMSO concentration in all assay wells was increased to 5%. Fluorescence was detected using an M5 Plate Reader ([…])

histone H4 acetylation = test: Histone H4 hyperacetylation Western blot in embryos; format: in vivo, zebrafish; conditions: 24 hpf embryos treated 6 hours; 3 μM PTBA, 25 μM PBA, 200 nM TSA
Protocol: It was next determined whether the HDACi function of PTBA was quantifiable in vivo. 24 hpf embryos were treated with 3 μM PTBA, 25 μM PBA, or 200 nM TSA for 6 hours. Protein extracts were prepared and immunoblotted with an anti-hyperacetylated histone H4 antibody. […] Furthermore, increasing the compound concentration caused a corresponding increase in hyperacetylation (FIG. 21).
SDS-PAGE and Western blotting were performed as described previously with some modifications (Noel, E. S. et al. Organ-specific requirements for Hdac1 in liver and pancreas formation. Dev Biol 322, 237-250, (2008)). Proteins were separated on 18% SDS-PAGE gels. Membranes were incubated at 4° C. overnight with 1:1000 anti-hyperacetylated histone H4 antibody (06-946, Millipore) or 1:1000 anti-α-tubulin antibody (Sigma-Aldrich) in PBT containing 5% nonfat milk.

[5] = tested on: mouse models of unilateral ureteral obstruction (UUO); test: Unilateral ureteral obstruction (UUO); format: in vivo
Source text: The model of unilateral ureteral obstruction generates progressive renal fibrosis. Surgically created UUO can be experimentally manipulated with respect to timing, severity, and duration, while reversal of the obstruction permits the study of recovery.
FIG. 47 represents the results of the testing of compounds UPHD-00022, UPHD-00025 (PTBA), UPHD-00029, UPHD-00036, and UPHD-00186, for their efficacy in mouse models of unilateral ureteral obstruction (UUO) as follows: in the UUO models, one ureter was ligated for 7 days and compounds were delivered via IP for days 0 to 6. At day 7 kidneys were harvested for Sirius red staining. […] Therefore, in the models tested, the only compound proven to be effective in all models and with significant delayed onset of treatment is UPHD-186.

[6] = tested on: BALB/c mice, severe IR-AKI; test: Severe ischemia-reperfusion AKI (IR-AKI); format: in vivo, mouse
Protocol: Surgeries were performed on a water-bath heated platform at 38° C. on 10-12 week old male BALB/c mice. For moderate IR-AKI, mice underwent a right nephrectomy followed by left renal pedicle clamping (800 μm pressure clamp, FST 18052-03). The clamp was released after 26 minutes, and tissue reperfusion was confirmed before completing the surgery. Mice were treated daily with indicated doses of compounds or equivalent volume of 20% 2-hydroxypropyl-β-cyclodextrin in water as vehicle control starting 24 h after injury. Since initial injury with this model is variable, mice were randomly allocated vehicle or m4PTB treatment if their serum creatinine levels were 0.8 to 1.2 mg/dl 24 h post IR injury. Other mice were excluded from further analysis and euthanized. To induce severe IR-AKI, mice underwent left renal pedicle clamping for 30 minutes and delayed contralateral nephrectomy was performed after 8 days.
For mouse studies, kidney sections were stained using Periodic Acid-Schiff (PAS) to assess renal tubular injury. Tubular injury (casts, dilated tubules, epithelial cell blebbing, and vacuolization, loss of brush borders or nuclei) was scored as described. Sirius red staining was performed using an established protocol used to evaluate renal fibrosis/collagen accumulation in kidney sections. To quantify Sirius red staining we used an Olympus BX-41 microscope equipped with an Olympus DP-72 digital camera system and polarizing light filter. Results are expressed as the mean percent fibrosis for all of the images per slide region (Sirius red positive/total surface area).
We used of 2-hydroxypropyl-β-cyclodextrin (CD, Sigma), a low toxicity drug formulation vehicle that has been well characterized and used extensively as a hydrophobic drug delivery vehicle. We could achieve concentrations of up to ˜12 mg/ml of PTBA analogues in 20% CD in water (100 mg/kg in volumes of ˜150-250 μl), and daily IP injections with 200 μl 20% CD in water had no effect on renal functional recovery following IR-AKI. Therefore all studies were performed using compounds dissolved in 20% CD. To assess dosing and biological activity of PTBA analogues in mice, CD1 mice were injected with varying doses of compounds IP and kidneys isolated at different time point for histone extraction and analysis of histone H4 acetylation, a marker of HDAC inhibitor activity, as outlined below. Based on results of these studies, mice were treated daily with 1, 10, 50 or 100 mg/kg of compound or equivalent volume of 20% CD vehicle control starting 24 h after injury.
˜30 μl blood was obtained by tail vein bleed at different time points, and serum samples frozen after confirming that they had not undergone hemolysis (which interferes with enzymatic analysis for serum creatinine). Serum creatinine was evaluated in duplicate samples using a commercially available enzymatic cascade assay (Pointe Scientific, requires only ˜7 μl of serum). […] Blood Urea Nitrogen (BUN) was determined in duplicate samples using a colorimetric enzymatic assay kit (Infinity Urea, Thermo Scientific), and spot urinary albumin/creatinine ratios determined using a mouse albumin ELISA and urinary creatinine assay kit (Albuwell and Creatinine Companion, Exocell).
Compounds 22, 25, 29, 36, and 186 were injected for 7 days at […] starting 24 hrs after severe IR treatment. […] Fibrotic (scar) tissue was measured using Sirus Red after 28 days for various markers of fibrosis.

[7] = tested on: kidney field (cad17:EGFP); test: Image-based high-content screen, Tg(cad17:EGFP) embryos, CNT analysis; format: in vivo, zebrafish; conditions: 4 individual values (n=4)
Source text: Initial studies, above, used a phenotypic marker of the ability to expand the renal progenitor cell field in larval zebrafish, and identified the first member of a novel class of HDAC inhibitors, PTBA as well as a few structural and functional analogs. These findings form the basis for further study. However, this technology is limited as it is dependent on subjective interpretation of a subtle phenotypic change in the fish. Therefore, in order to develop a more objective and higher content screen, we developed an image-based high-content screen using transgenic zebrafish (Vogt A, et al. Automated image-based phenotypic analysis in zebrafish embryos. Dev Dyn. 2009; 238(3):656-63). […] Tg(Cad17:EGFP) zebrafish is a transgenic line that was prepared by isolation of an approximately 5 kb (5066 bp) promoter element and approximately 3 kb (3221 bp) first intron element from the cadherin 17 locus, cloning it into a plasmid along with the enhanced GFP open reading frame and injecting if into zebrafish embryos to established transgenic lines using the meganuclease transgenesis method (Soroldoni et al., Simple and efficient transgenesis with meganuclease constructs in zebrafish, Methods Mol Bio 2009; 546: 117-30.). […]
For all second-generation compounds, the cad17:EGFP transgene is used as the primary readout to assay for expansion of kidney field (FIG. 35). […]

[8] = 7 days at 50 mg/ml starting 24 hrs after severe IR

**Q.** Which “half-life (t1/2)” value ([1]; following administration) does the source give for `O=C(O)CCCc1ccccc1` [Buphenyl] here?
**A.** The value was roughly 1 h.

**Q.** What about the bioavailability ([1]; taken orally) of the same compound?
**A.** The bioavailability was “about 80%”.

**Q.** With `CC(/C=C/C(=O)NO)=C\[C@@H](C)C(=O)c1ccc(N(C)C)cc1` [TSA, trichostatin A] as the compound, how does the “embryos with disrupted normal ntla expression” value ([2]; 200 nM) read?
**A.** Its value is 86%.

**Q.** And the “embryos with decreased myod1 expression” value ([2]; 3 μM PTBA (slightly decreased), 25 μM PBA, 200 nM TSA)?
**A.** The value was 100%.

**Q.** What about the “embryos with decreased fli1a expression” value ([2]; 25 μM PBA, 200 nM TSA) of the same compound?
**A.** Its value is 95%.

**Q.** And the “treated 72 hpf larvae killed” value (zebrafish larvae; 300 nM)?
**A.** The value was “greater than 90%”.

**Q.** And the “larval phenotype in phenotypic screen of analogs” value (zebrafish larvae; 3 μM, 2 to 72 hpf)?
**A.** Its value is “generated edemic and/or lethal phenotypes”.

**Q.** And the “death (lethality) by 72 hpf” value (zebrafish larvae; 25 μM PBA, 200 nM TSA, n=90)?
**A.** Its value is 61%.

**Q.** And the “larvae with edemic phenotype / pericardial edema at 72 hpf” value (zebrafish larvae; treated from 2 hpf, 3 μM PTBA, 25 μM PBA, 200 nM TSA)?
**A.** Its value is 100%.

**Q.** What about the “embryos with expanded lhx1a expression (% expansion)” value ([3]; 100 nM) of the same compound?
**A.** The value was 97%.

**Q.** What about the “lhx1a expansion class, 100 nM” value ([3]; 100 nM from 2 hpf) of the same compound?
**A.** Its value is “+”.

**Q.** What about the “embryos with expanded lhx1a expression (% expansion)” value ([3]; 200 nM) of the same compound?
**A.** The value was 100%.

**Q.** And the “lhx1a expansion class, 200 nM” value ([3]; 200 nM from 2 hpf)?
**A.** The value was “+”.

**Q.** And the “lethality before the 10-somite stage” value ([3]; 400 nM)?
**A.** Its value is “died before reaching 10 somites”.

**Q.** And the “lethality before the 10-somite stage” value ([3]; 800 nM)?
**A.** Its value is “lethal”.

**Q.** And the “lethality before the 10-somite stage” value ([3]; 1.5 μM)?
**A.** Its value is “lethal”.

**Q.** What about the “lethality before the 10-somite stage” value ([3]; 3 μM) of the same compound?
**A.** The value was “killed all treated embryos”.

**Q.** And the “concentration producing lhx1a expansion consistent with 3 μM PTBA” value ([3]; 10-somite embryos)?
**A.** The value was 200 nM.

**Q.** What about the “effect on HDAC activity” value [4] of the same compound?
**A.** The value was “completely blocked activity; also recorded: inhibit all HDAC activity”.

**Q.** And the “histone H4 hyperacetylation” value (histone H4 acetylation)?
**A.** The value was “hyperacetylation was observed”.

**Q.** For `O=C(CCCSc1ccccc1)Nc1ccccc1O` [UPHD-00186, N-(2-hydroxyphenyl)-4-(phenylsulfanyl) butanamide], which “fibrosis (Sirius red) and expression of fibrosis markers in UUO kidney” value ([5]; IP days 0 to 6, kidneys harvested at day 7) is on record?
**A.** Its value is “reduce both fibrosis and expression of fibrosis markers”.

**Q.** And the “prevention of post injury fibrosis in UUO compared with Vorinostat (SAHA)” value ([5]; mouse, in vivo)?
**A.** Its value is “more effective than the FDA approved HDACi drug Vorinostat (SAHA)”.

**Q.** What about the “fibrosis after 28 days (Sirus Red, markers of fibrosis)” value [6, 8] of the same compound?
**A.** The value was “most reduction in fibrosis”.

**Q.** And the “serum creatinine at day 9” value [6, 8]?
**A.** Its value is “better activity”.

**Q.** And the “effect of timing of treatment in severe IR-AKI” value ([6]; FIG. 46)?
**A.** Its value is “has still a significant effect on IR-AKI after more than 7 days”.

**Q.** And the “post injury fibrosis with delayed treatment” value ([6]; treatment 3 days after IR-AKI, FIG. 48)?
**A.** Its value is “still markedly reduces post injury fibrosis”.

**Q.** And the “reduction in post injury fibrosis at various dosages” value ([6]; various dosages, FIG. 45)?
**A.** Its value is “efficient at elevated doses”.

**Q.** And the EC50 [7]?
**A.** The EC50 was 649 nM and 810 nM and 818 nM.

**Q.** And the EC50 ([7]; Danio rerio)?
**A.** The EC50 was 587 nM.
